According to PMC9894685, “Abscisic acid agonists suitable for optimizing plant water use” (Frontiers in Plant Science, 2023):
Several values for one entry are separate records, joined by “and”; a condition that tells them apart may be missing. Identical values can stand only once. Like-named read-outs stand apart in the source and are kept apart here.

Tests used:
wheat plants = experiment: Foliar administration and thermal imaging of leaf temperature, wheat; type: in vivo, Triticum aestivum
Procedure: (§1) Thermal imaging was carried out as described ([Yang et al., 2016]). An assessment of the efficacy of ABA and CCPs was conducted by using 35-day-old Arabidopsis and 30-day-old wheat plants. Stock solutions (10 mM) of CCPs and ABA dissolved in dimethyl sulfoxide (DMSO) were diluted to the respective ligand concentrations (10, 30, 100 µM) in water containing 0.01% (v/v) Tween 20. Aqueous Tween 20 solutions supplemented with 0.1%, 0.3%, and 1% DMSO served for mock treatments. The solutions were sprayed onto the leaf surface until the run-off of droplets. One day after application (unless otherwise indicated), thermal imaging was conducted using the InfraTec instrument (IR-TCM 384, InfraTec, Dresden, Germany). The leaf temperature of Arabidopsis was determined as the average temperature of all leaves. The leaf temperature of wheat was determined as described ([Yang et al., 2019]).

HAB1 with RCARs = experiment: In vitro receptor assay, HAB1 in the presence of RCARs; type: biochemical, Arabidopsis thaliana; details: HAB1, in the presence of RCARs and saturating ABA levels (1 mM)
Procedure: (§2) Expression, purification, and analysis of RCAR and PP2C proteins were performed essentially as described ([Ruschhaupt et al., 2019]). Briefly, the ABA receptors RCAR1, RACR8, and RCAR11 were expressed with an aminoterminal histidine tag using the pSEVA431_LII_6xHIS::RCAR1/RCAR8/RCAR11. ABA coreceptors were expressed as histidine-tagged fusions with the maltose-binding protein using the pSEVA431_LII_6xHIS::MBP::ABI2/HAB1. All constructs were transformed and expressed in Escherichia coli strain BL21 and purified to homogeneity according to supplier’s instruction (GE Healthcare, Chicago, USA). The receptor assay was performed with 100 nM PP2C and a two-fold molar excess of RCAR. Values are means ± SD of three replicates. […] The maximum inhibition was set to 100% in the figures. The phosphatase activity was measured using 4-methylumbelliferyl-phosphate as a substrate ([Meinhard and Grill, 2001]). The increase in fluorescence was recorded over 25 min with excitation and emission wavelengths at 360 and 460 nm, respectively, using a Synergy 2 plate reader (Bio-Tec, Winooski, USA).

RCAR11-ABI2 = experiment: Yeast ABA signal pathway LUC reporter, RCAR11-ABI2; type: cell-based, Arabidopsis thaliana
Procedure: The yeast cultivation and the life luciferase assay were performed as described ([Ruschhaupt et al., 2019]). Briefly, the reporter yeast expressing an ABA-dependent luciferase gene (LUC) was transformed with different combinations of ABA signaling components as indicated. Golden gate cloning ([Binder et al., 2014]) was used to construct pYEAST_LII_5‐6_CEN_URA vector with TDH3 promoter and TDH1 terminator (tTDH1), pYEAST_LII_1‐2_CEN_LEU vector with GK1 promoter and tTDH1, and pYEAST_LII_3‐4_CEN_TRP with the GAL1 promoter (pGAL1) and tTDH1 to express RCARs, PP2Cs, and OST1 (SnRK2.6), respectively ([Ruschhaupt et al., 2019]). The expression of ABF2 in yeast relies on a modified pGREG503 vector, in which pGAL1 ([Jansen et al., 2005]) was replaced by the ADH1 promoter.
Colonies of freshly transformed cells were inoculated in 0.5 mL supplemented synthetic dextrose (SD) medium and incubated at 30°C in a gyratory shaker (Thermoshake-THO500, Gerhardt, Königswinter, Germany) at 200 rpm for 16-18 h. After overnight growth, the cells were harvested and washed in SD medium followed by inoculation in SD medium containing 2% galactose for induction of SnRK2 kinases under the control of the GAL1 promoter and supplementation with ligands at indicated concentrations, to an OD600 of 0.2 in flat-bottom 96-well plates (CytoOne, Starlab, Hamburg, Germany). Yeast cultures were incubated at 30°C and 200 rpm for 16-18 h before determination of LUC activity and cell density. Light emission of yeasts was detected in a HIDEX plate luminometer (HIDEX, Turku, Finland) after injection of 100 µL freshly prepared luciferin substrate (1 mM D-luciferin, Promega) provided in 100 mM citric acid, pH 3 ([Leskinen et al., 2003]) for 5 s and was corrected for background. The LUC activity was normalized to the cell density (OD600) measured in 96-well flat plates (Sarstedt, Nümbrecht, Germany). LUC activity is given as the ratio of light emission to OD600 in counts per second.

Arabidopsis plants [1] = tested on: Arabidopsis plants; design: method as in Yang et al., 2019; details: ref Yang et al., 2019, cited from earlier work
ABI2 with RCARs = experiment: In vitro receptor assay, ABI2 in the presence of RCAR1, RCAR8 or RCAR11; type: biochemical, Arabidopsis thaliana
Procedure: as §2

RCAR1-ABI2 = biological target: T1, RCAR1-ABI2 (Arabidopsis thaliana, UniProt O04719+Q84MC7); experiment: In vitro phosphatase assay, ABI2 with RCAR1; type: biochemical
T1 construct: 6xHis (N); made in house; host or cells: Escherichia coli BL21
T1 sequence (Q84MC7 1-187): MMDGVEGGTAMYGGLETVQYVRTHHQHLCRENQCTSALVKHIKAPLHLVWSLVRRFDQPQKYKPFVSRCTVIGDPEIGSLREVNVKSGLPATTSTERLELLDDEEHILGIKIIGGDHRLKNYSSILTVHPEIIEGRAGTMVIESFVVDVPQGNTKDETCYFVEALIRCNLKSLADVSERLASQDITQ
T1 sequence (O04719 1-423): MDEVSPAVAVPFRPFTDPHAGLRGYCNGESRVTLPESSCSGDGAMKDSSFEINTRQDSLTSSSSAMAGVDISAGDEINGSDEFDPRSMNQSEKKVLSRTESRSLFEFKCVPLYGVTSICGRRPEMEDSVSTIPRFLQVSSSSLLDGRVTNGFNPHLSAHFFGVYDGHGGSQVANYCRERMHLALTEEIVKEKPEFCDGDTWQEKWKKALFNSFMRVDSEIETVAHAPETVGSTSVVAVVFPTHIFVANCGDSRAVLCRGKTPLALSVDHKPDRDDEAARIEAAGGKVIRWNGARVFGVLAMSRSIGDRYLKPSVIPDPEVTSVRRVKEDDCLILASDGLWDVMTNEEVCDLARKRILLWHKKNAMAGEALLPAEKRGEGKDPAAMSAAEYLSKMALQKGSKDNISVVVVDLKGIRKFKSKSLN
Procedure: as §2

Arabidopsis plants [2] = experiment: Foliar administration and thermal imaging of leaf temperature (transpiration), Arabidopsis; type: in vivo, Arabidopsis thaliana
Procedure: as §1

Arabidopsis plants [3] = experiment: Progressive drought experiment: growth, water consumption, WUE; type: in vivo, Arabidopsis thaliana; details: 30 µM
Procedure: The progressive drought experiment was performed as described ([Yang et al., 2016]). Briefly, 18-day-old Arabidopsis plantlets grown under well-watered and short-day conditions (8 h light with 150 µmol m^-2 s^-1 PAR, 22°C, 50% relative humidity, and 16 h dark with 17°C, 60% relative humidity) were transferred to 0.2 L pots loaded with water-saturated soil (33.4 ± 0.4 g dry soil with 148 ± 2 g water). At the onset of the progressive drought (day 0), water was withheld, and a sealed soil surface prevented evaporation. A slowly increasing water deficit was achieved by transpirational water loss from plants. The progressive drought experiment lasted for eight weeks until mock-treated plants had consumed all the plant-usable water. […] For measuring growth and water consumption, leaf rosettes were regularly photographed, and the pots were weighed. The projected leaf area of Arabidopsis rosettes was analyzed by using Photoshop Elements software (Adobe, San Jose, USA). The consumed water was calculated as the difference in pot weight between day 0 and the designated days. The retained water was expressed as the difference between the pot weight at the end of the drought (day 57) and the weight of the loaded dry soil. Above-ground material was harvested at day 57, and the biomass was determined after drying the material for three days at 60°C to achieve constant weight. WUE was calculated as the ratio of above-ground dry biomass to consumed water. The data for the mock- and ABA-treated plants in the progressive drought experiment were already published ([Yang et al., 2019]).

[4] = tested on: Arabidopsis aba2-1 protoplasts; experiment: Transient ABA response in Arabidopsis protoplasts (pRD29B::LUC, RCAR11 and ABI2 effectors); type: cell-based, Arabidopsis thaliana; details: aba2-1 protoplasts, 18 h ligand exposure
Procedure: Preparation of Arabidopsis protoplasts, transfection of the effector DNA, and analysis of LUC activity were performed as described ([Tischer et al., 2017]). In essence, 10^5 mesophyll protoplasts from leaves of the ABA deficient mutant aba2-1 ([Schwartz et al., 1997]) were transfected with 4 µg DNA of the pRD29B::LUC construct as an ABA-responsive reporter and 3 µg of p35S::GUS (β-glucuronidase reporter gene) expression cassette as an internal control for normalization. In addition, 3 µg p35S::RCAR11 or the empty vector with the same expression cassette were co-expressed with 0.1 µg p35S::ABI2 effector constructs ([Tischer et al., 2017]), and the ligand-dependent induction of ABA-responsive reporter expression were assessed after incubation at 22°C. The expression of LUC and GUS was determined 18 h after transfection and ligand administration.

pig liver esterase = experiment: De-esterification of CCPs by pig liver esterase (HPLC); type: in vitro ADME; details: 4 nkat pig liver esterase, 2 h, 25°C
Description: (S)-ABA was purchased from CHEMOS (www.chemos.de). Other chemicals were of the highest purity available and obtained from SigmaAldrich (www.sigmaaldrich.com), ROTH (www.carlroth.com), and J. T. Baker (http://www.avantormaterials.com) unless otherwise indicated. The Arabidopsis (Arabidopsis thaliana) accession Col-0 was received from the Nottingham Arabidopsis Stock Center. The elite wheat (Triticum aestivum) cultivar, Elixer, was provided from Bayerische Landesanstalt für Landwirtschaft, Freising. ABA and CCPs were dissolved in DMSO and diluted to designated concentrations before administration. For de-esterification, 0.2 µmol CCP was treated with 4 nkat pig liver esterase (Sigma-Aldrich, Burlington, MA, USA) for 2 h at 25°C according to supplier’s instruction.

wheat = tested on: wheat; design: method as in Vaidya et al., 2019; details: ref Vaidya et al., 2019; cited from earlier work
Arabidopsis = tested on: Arabidopsis; design: method as in Vaidya et al., 2019; details: 50 µM; ref Vaidya et al., 2019; cited from earlier work
tomato = tested on: tomato; design: method as in Vaidya et al., 2019; details: ref Vaidya et al., 2019; cited from earlier work

## CC1=CC(=O)CC(C)(C)[C@@]1(O)/C=C/C(C)=C\C(=O)O [ABA, abscisic acid]
Wheat plants; 0.1 mM, one day after administration, averaged from six experiments
  Higher leaf temperature compared to the control: approximately 0.8 °C
Wheat plants; 24 h, separate experiments run in parallel to the CCPs
  Leaf temperature increase at 100 μM ABA: 0.6 ± 0.18 °C and 0.9 ± 0.19 °C and 0.6 ± 0.12 °C and 0.9 ± 0.03 °C and 0.9 ± 0.10 °C and 0.9 ± 0.07 °C
HAB1 with RCARs
  Residual phosphatase activity: 4%
RCAR11-ABI2; 30 µM exogenous ligand, 16 h exposure
  LUC reporter induction compared to mock-treated cells: approximately eightfold
Arabidopsis plants [1]; 10 µM, for six weeks
  Growth of leaf rosettes compared to mock: indistinguishable
Arabidopsis plants [1]; 10 µM
  WUE increase: 14%
Arabidopsis plants [1]; 30 µM, day 57
  Soil water retained at the end of the drought, of initial soil water: about 25%
Arabidopsis plants [1]; 30 µM, within 19 days
  Reduced projected leaf area: 20%
Arabidopsis plants [1]; 30 µM
  Growth of leaf rosettes compared to mock: growth reduction
  WUE increase: 26%
ABI2 with RCARs; ABI2, in the presence of RCARs and saturating ABA levels (1 mM)
  Residual phosphatase activity: 10%
RCAR1-ABI2
  IC50: 100 nM
Arabidopsis plants [2]; 10 µM
  Time until leaf temperature reached starting values: eight
Arabidopsis plants [2]; after single administration
  Time of optimum of inhibited transpiration: between two and four days after administration
Arabidopsis plants [3]
  Daily growth reduction: 1%

## CCCOC(=O)/C=C(\C=C\C(O)(C(C)C)C1(C#N)CC1)CC (stereo not drawn) [CCP3]
[4]
  Induction of ABA signaling compared to ABA: not observed
Pig liver esterase
  Degree of ester-bond cleavage by PLE (conversion into free acid): complete de-esterification
Wheat plants; 100 μM, 24 h after administration
  Leaf temperature increase, activity compared to ABA: higher activity than ABA
RCAR11-ABI2; 30 µM, PLE-treated prior to yeast exposure
  Reporter activation after pig liver esterase treatment: comparable to esterase-treated CCP2 and ABA
ABI2 with RCARs; pig liver esterase-treated
  Activity in the in vitro receptor assay after esterase treatment: comparable activity as CCP2
Arabidopsis plants [2]; 10, 30, 100 µM, one day after application
  Leaf temperature increase, activity compared to ABA: almost as active as the non-esterified CCP2
Arabidopsis plants [2]; single application 100 µM, recorded for 19 days
  Activity and persistence of minimized transpiration compared to ABA: more active and persistent than ABA
Arabidopsis plants [3]
  Growth reduction compared to the control: about 60%
Arabidopsis plants [3]; 24 h after the first application
  Leaf temperature increase: highest temperature increase
Arabidopsis plants [3]; day 57
  Reduction in biomass accumulation compared to the control: 60%
  Soil water retained at the end of the drought, of initial soil water: approximately 75%
Arabidopsis plants [3]; three administrations
  Growth of leaf rosettes compared to mock: growth reduction

## N#Cc1c(C2CC2)cc(CC(=O)NC2(C(=O)O)CCCCC2)cc1C1CC1 [Opabactin]
wheat
  Activity in controlling transpiration compared to ABA: comparable activity
Arabidopsis
  Efficacy in elevating leaf temperature: ABA-comparable efficacy
tomato
  Efficiency in controlling transpiration compared to ABA: more efficient than ABA
